Assay results published in patent US9212186B2, “Bicyclic pyrazole LRRK2 small molecule inhibitors” (Genentech, Inc., priority 2012, dated 2015).

Biological target: LRRK2 G2019S (Homo sapiens (Human), UniProt Q5S007, G2019S)
Test: In Vitro LRRK2 Lanthascreen Binding Assay
Procedure: In Vitro LRRK2 Lanthascreen Binding Assay
This assay was used to determine a compound's potency in inhibiting activity of LRRK2 by determining, Kiapp, IC50, or percent inhibition values. In 384 well proxiplates F black, shallow well plates LRRK2, Eu-anti-GST-antibody, Alexa Fluor® Kinase tracer 236 and test compound were incubated together.
Binding of the Alexa Fluor® “tracer” to a kinase is detected by addition of a Eu-labeled anti-GST antibody. Binding of the tracer and antibody to a kinase results in a high degree of FRET, whereas displacement of the tracer with a kinase inhibitor results in a loss of FRET.
Assay conditions and materials used were as follows:
Final Assay Conditions: • GST-LRRK2 G2019S 10 nM
Eu-anti-GST-antibody 2 nM • Kinase tracer 236 8.5 nM • Kinase reaction time: 1 hour • Temperature: ambient • Total volume: 15 μl • DMSO 1%
384 well proxiplates F black shallow well Perkin Elmer cat #6008260
Eu-labeled anti-GST antibody Invitrogen cat # PV5594
Alexa Fluor® Kinase tracer 236 Invitrogen cat #PV5592 • TRIS-HCl Sigma cat # T3253 • EGTA Sigma cat # E3889 • Brij-35: Sigma cat # B4184 (30% w/v) • DMSO: Sigma cat # D8418 • MgCl2 Sigma cat # M9272
Reaction Buffer: H2O/50 mM Tris, pH 7.4/10 mM MgCl2/1 mM EGTA/0.01% Brij 35
Compound Plate Preparation:
Serially dilute test compounds (10 mM stock) 1:3.16 (20 ul+43.2 ul) in 100% DMSO. 12 pt curve. Dilute each concentration 1:33.3 (3 ul+97 ul) in reaction buffer. Stamp 5 ul to assay plate. Final top test concentration 100 uM
Total and Blank Preparation:
In Reaction Buffer, 5 ul of DMSO (3%) was added to total and blank wells and 5 ul of Eu-labeled anti-GST antibody (6 nM) was added to blank wells. Add 5 ul LRRK2 (30 nM)/Eu-labeled anti-GST antibody (6 nM) mix to compound and total wells.
Add 5 ul kinase tracer (25.5 nM) to all wells. Incubate plates at room temperature for 1 hour on a plate shaker (gentle shaking). Read on Perkin Elmer EnVision reader HTRF protocol
Calculate ratio: (665/620)*10000. Subtract mean background values from all data points. Calculate % of control for each test value. Plot % of control vs Compound concentration. Calculate Ki Value (xlfit curve fitting—Morrison equation). Results expressed as a Ki in μM. Equation for Ki: Y=V0*(1−((x+Ki*(1+S/Km)+Et)/(2*Et)−(((x+Ki*(1+S/Km)+Et)^2−(4*Et*x))^0.5)/(2*Et)))
Tracer concentration (S)=8.5 nM

LRRK2 G2019S, sequence (Q5S007 whole entry G2019S): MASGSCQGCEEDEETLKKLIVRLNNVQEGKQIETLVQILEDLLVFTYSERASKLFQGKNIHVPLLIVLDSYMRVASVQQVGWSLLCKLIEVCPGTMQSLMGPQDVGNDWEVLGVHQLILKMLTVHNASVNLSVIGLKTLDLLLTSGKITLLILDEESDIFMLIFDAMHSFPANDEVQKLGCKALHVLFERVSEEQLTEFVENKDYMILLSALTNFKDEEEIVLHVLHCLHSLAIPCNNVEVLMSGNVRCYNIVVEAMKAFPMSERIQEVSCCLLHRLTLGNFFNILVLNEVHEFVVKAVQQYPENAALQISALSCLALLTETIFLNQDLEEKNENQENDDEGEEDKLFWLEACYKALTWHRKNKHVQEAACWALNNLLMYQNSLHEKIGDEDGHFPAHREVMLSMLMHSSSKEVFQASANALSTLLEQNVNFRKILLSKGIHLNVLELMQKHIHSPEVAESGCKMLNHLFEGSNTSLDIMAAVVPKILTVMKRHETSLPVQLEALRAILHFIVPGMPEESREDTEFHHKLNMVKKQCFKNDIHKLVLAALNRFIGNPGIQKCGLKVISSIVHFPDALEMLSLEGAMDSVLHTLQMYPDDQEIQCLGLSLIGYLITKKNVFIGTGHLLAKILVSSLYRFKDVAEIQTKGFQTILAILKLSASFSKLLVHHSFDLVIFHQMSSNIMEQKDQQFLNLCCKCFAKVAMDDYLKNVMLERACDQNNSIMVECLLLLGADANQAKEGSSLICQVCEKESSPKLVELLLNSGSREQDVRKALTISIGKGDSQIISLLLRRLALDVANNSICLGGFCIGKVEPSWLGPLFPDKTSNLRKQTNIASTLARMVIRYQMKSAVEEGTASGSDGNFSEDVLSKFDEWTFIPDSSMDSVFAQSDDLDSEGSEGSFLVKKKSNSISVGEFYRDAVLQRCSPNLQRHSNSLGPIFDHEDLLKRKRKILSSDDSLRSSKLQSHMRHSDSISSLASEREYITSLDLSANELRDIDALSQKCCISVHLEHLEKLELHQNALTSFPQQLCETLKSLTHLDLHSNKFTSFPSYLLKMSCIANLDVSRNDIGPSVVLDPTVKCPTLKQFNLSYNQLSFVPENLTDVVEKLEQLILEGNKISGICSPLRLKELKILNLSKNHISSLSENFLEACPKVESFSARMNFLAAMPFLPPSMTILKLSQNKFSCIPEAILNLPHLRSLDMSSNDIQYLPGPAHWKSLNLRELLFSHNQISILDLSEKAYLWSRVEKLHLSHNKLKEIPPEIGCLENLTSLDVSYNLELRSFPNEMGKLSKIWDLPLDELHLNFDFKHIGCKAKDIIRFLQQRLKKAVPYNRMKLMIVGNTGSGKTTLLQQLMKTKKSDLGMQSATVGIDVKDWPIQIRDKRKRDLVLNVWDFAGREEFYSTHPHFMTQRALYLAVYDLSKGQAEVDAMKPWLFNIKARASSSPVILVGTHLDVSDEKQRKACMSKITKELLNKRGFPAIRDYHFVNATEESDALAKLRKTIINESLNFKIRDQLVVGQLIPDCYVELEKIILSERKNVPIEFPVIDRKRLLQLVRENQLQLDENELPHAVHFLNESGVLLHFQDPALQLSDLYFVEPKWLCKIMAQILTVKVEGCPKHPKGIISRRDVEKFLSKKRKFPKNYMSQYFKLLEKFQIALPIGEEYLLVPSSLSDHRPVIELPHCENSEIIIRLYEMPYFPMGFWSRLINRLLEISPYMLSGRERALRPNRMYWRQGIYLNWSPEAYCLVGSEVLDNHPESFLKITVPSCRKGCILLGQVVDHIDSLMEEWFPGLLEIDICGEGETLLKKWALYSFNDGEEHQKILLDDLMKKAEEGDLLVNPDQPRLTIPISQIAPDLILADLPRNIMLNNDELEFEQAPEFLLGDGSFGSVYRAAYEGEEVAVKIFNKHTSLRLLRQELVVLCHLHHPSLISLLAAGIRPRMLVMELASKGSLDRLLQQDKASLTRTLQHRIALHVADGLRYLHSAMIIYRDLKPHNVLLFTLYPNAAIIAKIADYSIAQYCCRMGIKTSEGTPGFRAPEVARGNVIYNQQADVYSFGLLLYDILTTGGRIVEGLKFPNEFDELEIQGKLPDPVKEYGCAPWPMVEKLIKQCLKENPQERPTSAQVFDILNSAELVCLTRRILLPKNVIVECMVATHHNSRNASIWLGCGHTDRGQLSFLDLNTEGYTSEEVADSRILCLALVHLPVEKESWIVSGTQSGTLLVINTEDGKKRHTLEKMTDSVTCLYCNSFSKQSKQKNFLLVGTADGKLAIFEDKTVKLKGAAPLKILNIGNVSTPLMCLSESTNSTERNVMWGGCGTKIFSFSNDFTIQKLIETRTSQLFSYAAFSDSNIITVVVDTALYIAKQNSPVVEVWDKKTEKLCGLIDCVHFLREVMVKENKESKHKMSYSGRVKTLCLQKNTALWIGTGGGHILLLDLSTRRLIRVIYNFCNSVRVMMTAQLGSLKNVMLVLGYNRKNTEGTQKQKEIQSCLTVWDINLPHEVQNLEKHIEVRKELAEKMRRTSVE

Ki [nM]	Compound
2.6	CNc1nc(Nc2cnn3c2C(C)OCC3(C)C)ncc1C(F)(F)F (single isomer, unassigned) [Example 12, N4-methyl-5-(trifluoromethyl)-N2-(4,7,7-trimethyl-6,7-dihydro-4H-pyrazolo[5,1-c][1,4]oxazin-3-yl)pyrimidine-2,4-diamine]
1.2	CCNc1nc(Nc2cnn3c2C(C)OCC3)ncc1C(F)(F)F (single isomer, unassigned) [Example 14, N4-ethyl-N2-(4-methyl-6,7-dihydro-4H-pyrazolo[5,1-c][1,4]oxazin-3-yl)-5-(trifluoromethyl)pyrimidine-2,4-diamine]
3	CNc1nc(Nc2cnn3c2C(C)OCC3)ncc1C(F)(F)F (single isomer, unassigned) [Example 16, N4-methyl-N2-(4-methyl-6,7-dihydro-4H-pyrazolo[5,1-c][1,4]oxazin-3-yl)-5-(trifluoromethyl)pyrimidine-2,4-diamine]
61.3	CNc1nc(Nc2cnn3c2C(C)OC(C)C3)ncc1C(F)(F)F (single isomer, unassigned) [Example 19, N2-(4,6-dimethyl-6,7-dihydro-4H-pyrazolo[5,1-c][1,4]oxazin-3-yl)-N4-methyl-5-(trifluoromethyl)pyrimidine-2,4-diamine]
390	CNc1nc(Nc2cnn3c2C(C)OC(C)C3)ncc1C(F)(F)F (single isomer, unassigned) [Example 21, N2-(4,6-dimethyl-6,7-dihydro-4H-pyrazolo[5,1-c][1,4]oxazin-3-yl)-N4-methyl-5-(trifluoromethyl)pyrimidine-2,4-diamine]
7.5	CNc1nc(Nc2cnn3c2CCCC3)ncc1C(F)(F)F [Example 3, N4-methyl-N2-(4,5,6,7-tetrahydropyrazolo[1,5-a]pyridin-3-yl)-5-(trifluoromethyl)pyrimidine-2,4-diamine]
184	CNc1nc(Nc2cnn3c2[C@@H](C)N(C)CC3)ncc1C(F)(F)F [Example 6, (R)-N2-(4,5-dimethyl-4,5,6,7-tetrahydropyrazolo[1,5-a]pyrazin-3-yl)-N4-methyl-5-(trifluoromethyl)pyrimidine-2,4-diamine]
9.5	CCNc1nc(Nc2cnn3c2[C@H](C)N(C)CC3)ncc1C(F)(F)F [Example 7, (S)-N2-(4,5-dimethyl-4,5,6,7-tetrahydropyrazolo[1,5-a]pyrazin-3-yl)-N4-ethyl-5-(trifluoromethyl)pyrimidine-2,4-diamine]
212	CNc1nc(Nc2cnn3c2C(C)OCC3(C)C)ncc1C(F)(F)F (stereo not shown) [Example 11, N4-methyl-5-(trifluoromethyl)-N2-(4,7,7-trimethyl-6,7-dihydro-4H-pyrazolo[5,1-c][1,4]oxazin-3-yl)pyrimidine-2,4-diamine]
279	CNc1nc(Nc2cnn3c2C(C)OCC3)ncc1C(F)(F)F (stereo not shown) [Example 15, N4-methyl-N2-(4-methyl-6,7-dihydro-4H-pyrazolo[5,1-c][1,4]oxazin-3-yl)-5-(trifluoromethyl)pyrimidine-2,4-diamine]
0.9	CNc1nc(Nc2cnn3c2COC(C)(C)C3)ncc1C(F)(F)F [Example 22, N2-(6,6-dimethyl-6,7-dihydro-4H-pyrazolo[5,1-c][1,4]oxazin-3-yl)-N4-methyl-5-(trifluoromethyl)pyrimidine-2,4-diamine]
0.3	CCNc1nc(Nc2cnn3c2COC(C)(C)C3)ncc1C(F)(F)F [Example 23, N2-(6,6-dimethyl-6,7-dihydro-4H-pyrazolo[5,1-c][1,4]oxazin-3-yl)-N4-ethyl-5-(trifluoromethyl)pyrimidine-2,4-diamine]
819	CNc1nc(Nc2cnn3c2C2(COC2)OCC3)ncc1C(F)(F)F [Example 27, N^2-(6′7′-dihydrospiro[oxetane-3,4′-pyrazolo[5,1-c][1,4]oxazine]-3-yl)-N^4-methyl-5-(trifluoromethyl)pyrimidine-2,4-diamine]
10.9	CNc1nc(Nc2cc3n(n2)CCOC3)ncc1C(F)(F)F [Example 30, N^2-(6,7-dihydro-4H-pyrazolo[5,1-c][1,4]oxazin-2-yl)-N^4-methyl-5-(trifluoromethyl)pyrimidine-2,4-diamine]

Second part, the compound before the results:

Compound	Ki [nM]
CNc1nc(Nc2cnn3c2C(C)OC(C)C3)ncc1C(F)(F)F (single isomer, unassigned) [Example 20, N2-(4,6-dimethyl-6,7-dihydro-4H-pyrazolo[5,1-c][1,4]oxazin-3-yl)-N4-methyl-5-(trifluoromethyl)pyrimidine-2,4-diamine]	5.7
CNc1nc(Nc2cnn3c2[C@H](C)N(C)CC3)ncc1C(F)(F)F [Example 5, (S)-N2-(4,5-dimethyl-4,5,6,7-tetrahydropyrazolo[1,5-a]pyrazin-3-yl)-N4-methyl-5-(trifluoromethyl)pyrimidine-2,4-diamine]	20
CCNc1nc(Nc2cnn3c2[C@@H](C)N(C)CC3)ncc1C(F)(F)F [Example 8, (R)-N2-(4,5-dimethyl-4,5,6,7-tetrahydropyrazolo[1,5-a]pyrazin-3-yl)-N4-ethyl-5-(trifluoromethyl)pyrimidine-2,4-diamine]	144
C[C@H]1c2c(Nc3ncc(C(F)(F)F)c(NC4CC4)n3)cnn2CCN1C [Example 9, (S)-N4-cyclopropyl-N2-(4,5-dimethyl-4,5,6,7-tetrahydropyrazolo[1,5-a]pyrazin-3-yl)-5-(trifluoromethyl)pyrimidine-2,4-diamine]	4.9
C[C@@H]1c2c(Nc3ncc(C(F)(F)F)c(NC4CC4)n3)cnn2CCN1C [Example 10, (R)-N4-cyclopropyl-N2-(4,5-dimethyl-4,5,6,7-tetrahydropyrazolo[1,5-a]pyrazin-3-yl)-5-(trifluoromethyl)pyrimidine-2,4-diamine]	44.4
CCNc1nc(Nc2cnn3c2C(C)OCC3)ncc1C(F)(F)F (stereo not shown) [Example 13, N4-ethyl-N2-(4-methyl-6,7-dihydro-4H-pyrazolo[5,1-c][1,4]oxazin-3-yl)-5-(trifluoromethyl)pyrimidine-2,4-diamine]	47.7
CNc1nc(Nc2cnn3c2COCC3)ncc1C(F)(F)F [Example 17, N2-(6,7-dihydro-4H-pyrazolo[5,1-c][1,4]oxazin-3-yl)-N4-methyl-5-(trifluoromethyl)pyrimidine-2,4-diamine]	2.3
CNc1nc(Nc2cnn3c2C(C)OC(C)C3)ncc1C(F)(F)F (stereo not shown) [Example 18, N2-(4,6-dimethyl-6,7-dihydro-4H-pyrazolo[5,1-c][1,4]oxazin-3-yl)-N4-methyl-5-(trifluoromethyl)pyrimidine-2,4-diamine]	1.8
CNc1nc(Nc2cnn3c2CCC3)ncc1C(F)(F)F [Example 24, N2-(5,6-dihydro-4H-pyrrolo[1,2-b]pyrazol-3-yl)-N4-methyl-5-(trifluoromethyl)pyrimidine-2,4-diamine]	0.6
CNc1nc(Nc2cnn3c2N(C)CC3)ncc1C(F)(F)F [Example 25, N4-methyl-N2-(1-methyl-2,3-dihydro-1H-imidazo[1,2-b]pyrazol-7-yl)-5-(trifluoromethyl)pyrimidine-2,4-diamine]	31.2
CNc1nc(Nc2cnn3c2CN(C)CC3)ncc1C(F)(F)F [Example 26, N^4-methyl-N^2-(5-methyl-4,5,6,7-tetrahydropyrazolo[1,5-a]pyrazin-3-yl)-5-(trifluoromethyl)pyrimidine-2,4-diamine]	33.5
